Reference: ChEMBL document CHEMBL4295262, “Evaluation of the utility of stem-cell derived cardiomyocytes for drug proarrhythmic potential” (2019)

How the values were obtained:
Conditions in all cases: human, ipsc-cm
[1] = (§1) Electrical activity assay on cell lines treated with a given drug. DMSO was used as a vehicle and a control, unblinded dofetilide was used as a control.; assay type: ADME, cell-based; parameters: FPDc: unit not given here
[2] = as §1; assay type: ADME, cell-based; parameters: FPDc: unit not given here; remark: listed apart in the source
[3] = as §1
[4] = as §1; remark: listed apart in the source
[5] = as §1; remark: listed apart in the source
[6] = as §1; remark: listed apart in the source
[7] = as §1; assay type: ADME, cell-based
[8] = as §1; assay type: ADME, cell-based; remark: listed apart in the source
[9] = 0.003169 µM, concentration (um) 0.00316912 uM
[10] = 0.01001 µM, concentration (um) 0.0100144 uM
[11] = 0.03165 µM, concentration (um) 0.0316456 uM
[12] = 0.1 µM, concentration (um) 0.1 uM
[13] = 0.009507 µM, concentration (um) 0.00950736 uM
[14] = 0.03004 µM, concentration (um) 0.0300433 uM
[15] = 0.09494 µM, concentration (um) 0.0949367 uM
[16] = 0.3 µM, concentration (um) 0.3 uM

Cc1nc2n(c(=O)c1CCN1CCC(c3noc4cc(F)ccc34)CC1)CCCC2 [RISPERIDONE]
FPDc [1, 9]: 0.03911
FPDc [1, 10]: 0.03923
FPDc [1, 11]: 0.03847
FPDc [1, 12]: 0.03663
FPD measurement [2, 9]: 5 Values Out Of 5 Were Excluded Due To Quiescence Or 0 Apdc
FPDc [2, 9]: 54.79
FPD measurement [2, 10]: 5 Values Out Of 5 Were Excluded Due To Quiescence Or 0 Apdc
FPDc [2, 10]: 49.58
FPD measurement [2, 11]: 5 Values Out Of 5 Were Excluded Due To Quiescence Or 0 Apdc
FPDc [2, 11]: 47.1
FPD measurement [2, 12]: 5 Values Out Of 5 Were Excluded Due To Quiescence Or 0 Apdc
FPDc [2, 12]: 61.9
FPD measurement ([3]; 0.003169 µM): 1 Values Out Of 1 Were Excluded Due To Quiescence Or 0 Fpdc
FPDc ([3]; 0.003169 µM): 1 Values Out Of 1 Were Excluded Due To Quiescence Or 0 Fpdc
FPD measurement ([3]; 0.01001 µM): 1 Values Out Of 1 Were Excluded Due To Quiescence Or 0 Fpdc
FPDc ([3]; 0.01001 µM): 1 Values Out Of 1 Were Excluded Due To Quiescence Or 0 Fpdc
FPD measurement ([3]; 0.03165 µM): 1 Values Out Of 1 Were Excluded Due To Quiescence Or 0 Fpdc
FPDc ([3]; 0.03165 µM): 1 Values Out Of 1 Were Excluded Due To Quiescence Or 0 Fpdc
FPD measurement ([3]; 0.1 µM): 1 Values Out Of 1 Were Excluded Due To Quiescence Or 0 Fpdc
FPDc ([3]; 0.1 µM): 1 Values Out Of 1 Were Excluded Due To Quiescence Or 0 Fpdc
FPD measurement ([4]; 0.003169 µM): 55.22 FPDc
FPDc ([4]; 0.003169 µM): 55.22
FPD measurement ([4]; 0.01001 µM): 55.61 FPDc
FPDc ([4]; 0.01001 µM): 55.61
FPD measurement ([4]; 0.03165 µM): 57.01 FPDc
FPDc ([4]; 0.03165 µM): 57.01
FPD measurement ([4]; 0.1 µM): 65.06 FPDc
FPDc ([4]; 0.1 µM): 65.06

Cc1cccc(C)c1OCC(C)N (stereo not drawn) [MEXILETINE]
FPDc ([5]; 0.1 µM): 67.46
FPDc ([5]; 1 µM): 77.46
FPDc ([5]; 10 µM): 87.68
FPDc ([5]; 100 µM): 95.17
FPDc [2, 12]: 43.08
FPDc ([2]; 1 µM, concentration (um) 1 uM): 54.07
FPDc ([2]; 10 µM, concentration (um) 10 uM): 64.26
FPDc ([2]; 100 µM, concentration (um) 100 uM): 63.72
FPD measurement ([3]; 0.1 µM): 1 Values Out Of 1 Were Excluded Due To Quiescence Or 0 Fpdc
FPDc ([3]; 0.1 µM): 1 Values Out Of 1 Were Excluded Due To Quiescence Or 0 Fpdc
FPD measurement ([3]; 1 µM): 1 Values Out Of 1 Were Excluded Due To Quiescence Or 0 Fpdc
FPDc ([3]; 1 µM): 1 Values Out Of 1 Were Excluded Due To Quiescence Or 0 Fpdc
FPD measurement ([3]; 10 µM): 1 Values Out Of 1 Were Excluded Due To Quiescence Or 0 Fpdc
FPDc ([3]; 10 µM): 1 Values Out Of 1 Were Excluded Due To Quiescence Or 0 Fpdc
FPD measurement ([3]; 100 µM): 1 Values Out Of 1 Were Excluded Due To Quiescence Or 0 Fpdc
FPDc ([3]; 100 µM): 1 Values Out Of 1 Were Excluded Due To Quiescence Or 0 Fpdc
APDc ([6]; 0.1 µM): 53
FPD measurement ([6]; 0.1 µM): 53 FPDc
APDc ([6]; 1 µM): 57.83
FPD measurement ([6]; 1 µM): 57.83 FPDc
APDc ([6]; 10 µM): 63.09
FPD measurement ([6]; 10 µM): 63.09 FPDc
APDc ([6]; 100 µM): 74.46
FPD measurement ([6]; 100 µM): 74.46 FPDc

CCOC(=O)C1=C(C)NC(C)=C(C(=O)OC)C1c1cccc([N+](=O)[O-])c1 (stereo not drawn) [NITRENDIPINE]
FPD measurement [7, 13]: 39.69 FPDc
FPDc [7, 13]: 6 Values Out Of 6 Were Excluded Due To Quiescence Or 0 Fpdc
FPDc [7, 14]: 6 Values Out Of 6 Were Excluded Due To Quiescence Or 0 Fpdc
FPDc [7, 15]: 6 Values Out Of 6 Were Excluded Due To Quiescence Or 0 Fpdc
FPDc [7, 16]: 6 Values Out Of 6 Were Excluded Due To Quiescence Or 0 Fpdc
FPD measurement ([5]; 0.009507 µM): 5 Values Out Of 5 Were Excluded Due To Quiescence Or 0 Apdc
FPDc ([5]; 0.009507 µM): 63.48
FPD measurement ([5]; 0.03004 µM): 5 Values Out Of 5 Were Excluded Due To Quiescence Or 0 Apdc
FPDc ([5]; 0.03004 µM): 45.72
FPDc ([5]; 0.09494 µM): 31.81
FPD measurement ([5]; 0.3 µM): 5 Values Out Of 5 Were Excluded Due To Quiescence Or 0 Apdc
FPDc ([5]; 0.3 µM): 19.65
FPD measurement ([3]; 0.009507 µM): 1 Values Out Of 1 Were Excluded Due To Quiescence Or 0 Fpdc
FPDc ([3]; 0.009507 µM): 1 Values Out Of 1 Were Excluded Due To Quiescence Or 0 Fpdc
FPD measurement ([3]; 0.03004 µM): 1 Values Out Of 1 Were Excluded Due To Quiescence Or 0 Fpdc
FPDc ([3]; 0.03004 µM): 1 Values Out Of 1 Were Excluded Due To Quiescence Or 0 Fpdc
FPD measurement ([3]; 0.09494 µM): 1 Values Out Of 1 Were Excluded Due To Quiescence Or 0 Fpdc
FPDc ([3]; 0.09494 µM): 1 Values Out Of 1 Were Excluded Due To Quiescence Or 0 Fpdc
FPD measurement ([3]; 0.3 µM): 1 Values Out Of 1 Were Excluded Due To Quiescence Or 0 Fpdc
FPDc ([3]; 0.3 µM): 1 Values Out Of 1 Were Excluded Due To Quiescence Or 0 Fpdc
APDc ([6]; 0.009507 µM): 66.7
FPD measurement ([6]; 0.009507 µM): 66.7 FPDc
APDc ([6]; 0.03004 µM): 75.75
FPD measurement ([6]; 0.03004 µM): 75.75 FPDc
APDc ([6]; 0.09494 µM): More Than Half The Wells Had A Quiescence Event Or Apdc Readings Of 0
FPD measurement ([6]; 0.09494 µM): More Than Half The Wells Had A Quiescence Event Or Apdc Readings Of 0
APDc ([6]; 0.3 µM): More Than Half The Wells Had A Quiescence Event Or Apdc Readings Of 0
FPD measurement ([6]; 0.3 µM): More Than Half The Wells Had A Quiescence Event Or Apdc Readings Of 0
FPD measurement [8, 13]: More Than Half The Wells Had A Quiescence Event Or Apdc Readings Of 0
FPDc [8, 13]: More Than Half The Wells Had A Quiescence Event Or Fpdc Readings Of 0
FPD measurement [8, 14]: More Than Half The Wells Had A Quiescence Event Or Apdc Readings Of 0
FPDc [8, 14]: More Than Half The Wells Had A Quiescence Event Or Fpdc Readings Of 0
FPD measurement [8, 15]: More Than Half The Wells Had A Quiescence Event Or Apdc Readings Of 0
FPDc [8, 15]: More Than Half The Wells Had A Quiescence Event Or Fpdc Readings Of 0
FPD measurement [8, 16]: 5 Values Out Of 5 Were Excluded Due To Quiescence Or 0 Apdc
FPDc [8, 16]: 5 Values Out Of 5 Were Excluded Due To Quiescence Or 0 Fpdc

CCOC(=O)N1CCC(=C2c3ccc(Cl)cc3CCc3cccnc32)CC1 [LORATADINE]
FPDc ([1]; 0.0009507 µM, concentration (um) 0.000950736 uM): 0.02441
FPDc ([1]; 0.003004 µM, concentration (um) 0.00300433 uM): 0.02167
FPDc ([1]; 0.009494 µM, concentration (um) 0.00949367 uM): 0.02089
FPDc ([1]; 0.03 µM, concentration (um) 0.03 uM): 0.02123
FPD measurement ([3]; 0.0009507 µM): 1 Values Out Of 1 Were Excluded Due To Quiescence Or 0 Fpdc
FPDc ([3]; 0.0009507 µM): 1 Values Out Of 1 Were Excluded Due To Quiescence Or 0 Fpdc
FPD measurement ([3]; 0.003004 µM): 1 Values Out Of 1 Were Excluded Due To Quiescence Or 0 Fpdc
FPDc ([3]; 0.003004 µM): 1 Values Out Of 1 Were Excluded Due To Quiescence Or 0 Fpdc
FPD measurement ([3]; 0.009494 µM): 1 Values Out Of 1 Were Excluded Due To Quiescence Or 0 Fpdc
FPDc ([3]; 0.009494 µM): 1 Values Out Of 1 Were Excluded Due To Quiescence Or 0 Fpdc
FPD measurement ([3]; 0.03 µM): 1 Values Out Of 1 Were Excluded Due To Quiescence Or 0 Fpdc
FPDc ([3]; 0.03 µM): 1 Values Out Of 1 Were Excluded Due To Quiescence Or 0 Fpdc
FPD measurement ([4]; 0.0009507 µM): 54.17 FPDc
FPDc ([4]; 0.0009507 µM): 54.17
FPD measurement ([4]; 0.003004 µM): 54.08 FPDc
FPDc ([4]; 0.003004 µM): 54.08
FPD measurement ([4]; 0.009494 µM): 55.38 FPDc
FPDc ([4]; 0.009494 µM): 55.38
FPD measurement ([4]; 0.03 µM): 55.57 FPDc
FPDc ([4]; 0.03 µM): 55.57
